How the values were obtained:
[1] = Phase I/II first-in-human study CBLZ945X2101: adverse events; assay type: in vivo
Text: The purpose of this first-in-human (FIH) study of BLZ945 given as a single agent or in combination with spartalizumab is to characterize the safety, tolerability, pharmacokinetics (PK), pharmacodynamics, and anti-tumor activity of BLZ945, administered orally, as a single agent or in combination with spartalizumab, administered intravenously (i.v.) in adult patients with advanced solid tumors.
This study is a FIH, open-label, multi-center, phase I/II, study which consists of a phase I dose escalation part of BLZ945 as single agent (including a separate Japanese BLZ945 single agent dose escalation arm) and in combination with spartalizumab. Alternative dosing regimens of BLZ945 may be evaluated. BLZ945 is being administered orally, and spartalizumab is being administered i.v. every four weeks until patient experiences unacceptable toxicity, progressive disease and/or treatment is discontinued at the discretion of the Investigator or the patient.
BLZ945 dosing is being evaluated on the following schedules, 7 days on/7 days off (i.e., administer BLZ945 every day for 7 days and suspend for 7 days), once weekly (Q1W), and 4 days on/10 days off (i.e., administer BLZ945 every day for 4 days and suspend for 10 days). For each of these schedules, once per day (OD) or twice per day (BID) dosing may be evaluated. For once daily administration, patients should take their dose at approximately the same time in the morning. For the twice a day dosing, the first dose should be taken in the morning and the second dose should be taken approximately 10 to 12 hours after the morning dose.
All patients treated with either BLZ945 single agent or in combination with spartalizumab will begin study treatment on Cycle 1 Day 1. Each cycle will consist of 28 days. […]
As mentioned above, nausea, vomiting have been commonly observed to occur with single-agent administration of BLZ945 in the first-in-human trial (CBLZ945X2101). […] An additional cohort to evaluate 7 days on may also be evaluated.

[2] = test system: MC38 syngeneic mouse model; experiment: MC38 syngeneic mouse model, tumor growth; assay type: in vivo, C57BL/6N mice; conditions: repeat with suboptimal anti-PD-1 dose (5 mg/kg); BLZ945 4 days on/3 days off
Protocol: In another set of experiments using the MC38 syngeneic mouse model in C57BL/6N mice two different schedules of BLZ945 were compared for efficacy (FIG. 3) using once weekly dosing of BLZ945 and 4 days on/3 days off dosing of BLZ945 alone and in combination with anti-PD-1. […] On day 14 post treatment start, there was a trend of tumor growth inhibition, corresponding to a % T/C vs. control of 28%.
Doses of 200 mg/kg BLZ945 and 10 mg/kg anti-PD-1 were given on the schedules indicated and tumor volumes measured on day 14 after study initiation. Statistical significance was calculated using one-way ANOVA with post hoc Dunnett's test for comparison of treatment versus control group.
Efficacy testing was repeated with a suboptimal dose of anti-PD-1 (5 mg/kg) in order to test for an additive effect of BLZ945 to be observed when given in combination.

[3] = test system: microglia; experiment: Microglial depletion in SOD1G93A mice with b.i.d. dosing (RD-2019-00111); assay type: in vivo, SOD1G93A mouse; conditions: 5 consecutive days
Protocol: (§1) Dosing was examined in the SOD1G93A mouse model of ALS, the most commonly used rodent ALS model (RD-2019-00111). Twice daily dosing (b.i.d.) was examined after 5 consecutive dosing days. Microglia were depleted in the cortex by approximately 25% and 75% following treatment with 50 mg/kg and 80 mg/kg BLZ945. BLZ945 dosed b.i.d. at 10 mg/kg was not effective (FIG. 10 A).
(§2) FIG. 10: BLZ945-mediated microglial depletion in the cortex, as assessed by Iba1/Aif-1 immunohistological staining (A) or in spinal cord by qPCR analysis (B) Values are group means±SD (n=3). (C and D) Exposure of BLZ945 in blood and CNS brain and spinal cord 3 hours after the final dose of the study.

[4] = Blood, brain and spinal cord exposure in SOD1G93A mice, b.i.d. dosing (RD-2019-00111); assay type: in vivo; conditions: mouse, brain and spinal cord relative to blood, three hours after the final dose, read-out: brain and spinal cord drug exposure relative to blood
Protocol: as §1, §2

[5] = test system: microglia; experiment: Microglia depletion in lumbar spinal cord, Iba1 qPCR, 8-week SOD1G93A efficacy study (RD-2019-00092); assay type: in vivo, SOD1G93A mouse; conditions: for microglia depleted (lumbar spinal cord): 8 weeks
Protocol: BLZ945 was dosed over an 8-week period in a mouse model of ALS (in house data). BLZ945 was tested for efficacy in preventing or delaying disease progression in the SOD1G93A ALS mouse (RD-2019-00092). […] Normal body weight gain is also impaired in this model. These physiological impairments are considered as mechanistic readouts given that they best recapitulate the clinical disease phenotype (Turner et al 2013). Animals were dosed from 8 to 16 weeks of age with daily (q.d) doses of BLZ945 at either 65 mg/kg, 170 mg/kg, or 170 mg/kg delivered intermittently with a 7 day ON/7 day OFF regimen.
Microglia were depleted by greater than 90% with the high dose (170 mg/kg) of BLZ945 and by about 50% with the low dose (65 mg/kg). […] Blood and CNS exposure to BLZ945 were measured at 3 hours post-dose on the day of necropsy (Table 8). BLZ945 spinal cord exposure ratios (relative to blood) were consistent across dose groups at approximately 0.4 (Table 9).
FIG. 11: Microglia depletion in the lumbar spinal cord, assessed by Iba1 transcript expression by qPCR. Samples were collected at necropsy on the final day of dosing of the eight-week study. Values are group means±SD (n=12-15). Data are presented as fold changes in comparison to the SOD1 vehicle-treated group. Statistical analyses were by Kruskal-Wallis test with Dunn's multiple comparison

CNC(=O)c1cc(Oc2ccc3nc(N[C@@H]4CCCC[C@H]4O)sc3c2)ccn1 [BLZ945, 4-((2-(((1R,2R)-2-hydroxycyclohexyl)amino)benzo[d]thiazol-6-yl)oxy)-N-methylpicolinamide]
most frequently reported AEs (>10%) suspected to be related to treatment ([1]; in vivo): aspartate aminotransferase (AST) increased, nausea, vomiting, alanine aminotransferase (ALT) increased, fatigue, amylase increased, blood creatine phosphokinase increased and decreased appetite | serum enzyme elevation ([1]; in vivo): Asymptomatic serum enzyme elevation including AST, ALT, CK and alkaline phosphatase elevations | suspected SAEs (grade and kind) ([1]; single agent arm, combination arm): Grade 3 AST increased, Grade 3 asthenia and Grade 4 sudden death | tumor growth inhibition [2]: not either of the single agent groups dosed with BLZ945 or anti-PD-1 resulted in a statistically significant tumor growth inhibition | microglia depletion in the cortex ([3]; 10 mg/kg b.i.d.): not effective | reduction of microglial markers in spinal cord (qPCR) ([3]; 10 mg/kg b.i.d.): small but non-significant effect | microglia depleted in spinal cord (qPCR of microglial markers) ([3]; 50 mg/kg b.i.d.): approximately 55% | microglia depleted in the cortex ([3]; 50 mg/kg b.i.d.): approximately 25% | microglia depleted in spinal cord (qPCR of microglial markers) ([3]; 80 mg/kg b.i.d.): ~85% | microglia depleted in the cortex ([3]; 80 mg/kg b.i.d.): ~75% | Kp at 3 h [4]: ~0.3 | microglia depleted (lumbar spinal cord) ([5]; 65 mg/kg q.d.): about 50% | microglia recovery compared to high dose animals ([5]; 170 mg/kg 7 day ON/7 day OFF, sacrificed at 7 days off): greater than 50% | microglia depleted (lumbar spinal cord) ([5]; 170 mg/kg q.d. continuous): greater than 90%
